What was measured:
[1] = test system: green algae; experiment: DNA1-19-1 first pond efficacy study (limnocorrals): green algae abundance; assay type: in vivo, green algae (Division Chlorophyta); details: 2 μM, until 10 days after application, LSD
Procedure: (§1) The method described by Schrader et al. (2000) was used to determine the potential for using the anthraquinone derivatives as selective algicides in catfish aquaculture ponds. All catfish ponds used in efficacy tests were maintained using commercial pond management practices and were located at the Thad Cochran Pond Facility, Mississippi State University, Stoneville, Miss. Anthraquinone analogs were dissolved in deionized water before application to water within the limnocorrals.
(§2) Limnocorrals in which test compound was applied to the enclosed water were randomly selected, and control (no test compound applied) limnocorrals were included in each efficacy study. For each sampling, two water samples (250 mL) were obtained from within each limnocorral (approximately 6-8 cm below the water surface and from opposite sides of each limnocorral) and mixed together in a 500 mL sample bottle to provide a representative sample of the water contained within the limnocorral.
Three pond efficacy studies were conducted with DNA1-19-1. […] To perform phytoplankton identification and enumeration, water samples were processed by preserving 50-mL subsamples with Lugol's solution and storing them at 4° C. until they could be identified and counted as “natural units” (i.e., colonies, filaments, or unialgal cells) using a Sedgewick-Rafter counting chamber at 300× magnification. […]

[2] = test system: Microcystis spp.; experiment: DNA2-59-1 third pond efficacy study: Microcystis spp. abundance; assay type: in vivo; details: 0.3 μM
Procedure: as §1, §2
(§3) For the third efficacy test with DNA2-59-1, twelve limnocorrals (2.44 m in diameter and 1.53 m high) were placed in a 4-ha earthen pond containing a bloom of O. perornata. […]

[3] = test system: geosmin; experiment: DNA2-59-1 first pond efficacy study: geosmin levels; assay type: in vivo; details: 1 μM
Procedure: as §1
(§4) Limnocorrals in which test compound was applied to the enclosed water were randomly selected, and control (no test compound applied) limnocorrals were included in each efficacy study. […]
(§5) In the first study, application rates of 0.1 μM (37.7 μg/L), 0.3 μM ([…]), and 1.0 μM (377 μg/L) of DNA2-59-1 were tested using limnocorrals (three replicates per concentration) that were of the same type used for testing DNA1-19-1. […] Water samples were also analyzed to determine the persistence of DNA2-59-1 in the pond water, and this analysis was performed by using high-pressure liquid chromatography (HPLC) (method and results are described later).

[4] = test system: Raphidiopsis brookii; experiment: DNA2-59-1 second pond efficacy study: Raphidiopsis brookii abundance; assay type: in vivo; details: 0.3 μM, within three days of application
Procedure: as §1, §2
(§6) In the second efficacy test with DNA2-59-1, six limnocorrals (1.53 m in diameter and 1.53 m high) were placed in a 0.1-ha earthen pond containing a heavy bloom of O. perornata. The same delay in mixing the water within the limnocorrals used in the first efficacy study was utilized. Water within three randomly selected limnocorrals received an application rate of 0.3 μM DNA2-59-1, and the other three limnocorrals were controls. […]

[5] = test system: Oscillatoria perornata; experiment: DNA2-59-1 first pond efficacy study: O. perornata abundance; assay type: in vivo; details: first study, 0.1, 0.3 and 1 μM
Procedure: as §1, §4, §5

[6] = test system: Oscillatoria agardhii; experiment: DNA2-59-1 third pond efficacy study: Oscillatoria agardhii abundance; assay type: in vivo; details: 0.3 μM
Procedure: as §1, §2, §3

[7] = test system: chlorophyll a; experiment: DNA2-59-1 first pond efficacy study: chlorophyll a; assay type: in vivo
Procedure: as §1, §4, §5

[8] = test system: diatoms; experiment: DNA2-59-1 second pond efficacy study: diatom abundance; assay type: in vivo, diatoms (division Chromophyta, class Bacillariophyceae); details: 0.3 μM
Procedure: as §1, §2, §6

CCN(CC)CCCC(C)NCc1ccc2c(c1)C(=O)c1ccccc1C2=O.O=P(O)(O)O.O=P(O)(O)O (stereo not drawn) [DNA1-19-1, 2-[methylamino-N-(1′-methyl-4′-N,N-diethylaminobutyl)]-9,10-anthraquinone diphosphate]
Numbers of green algae, treated vs controls (result in words) [1]: not significantly different

CC(C)NCc1ccc2c(c1)C(=O)c1ccccc1C2=O [DNA2-59-1, 2-[methylamino-N-(1′-methylethyl)]-9,10-anthraquinone monophosphate]
Microcystis spp. compared to control limnocorrals (result in words) [2]: not greatly affected
decrease of geosmin levels compared to controls and 0.1 and 0.3 μM (result in words) [3]: to a greater degree and significantly more
Numbers of Raphidiopsis brookii (result in words) [4]: significantly and dramatically reduced
numbers of O. perornata filaments compared to controls (result in words) [5]: significantly reduced
Numbers of Oscillatoria agardhii (result in words) [6]: significantly reduced
Chlorophyll a levels significantly reduced compared to controls (result in words) ([7]; 0.1 μM): not
chlorophyll a levels compared to controls (result in words) ([7]; 1 and 0.3 μM): significantly reduced
diatoms (result in words) [8]: not significantly affected

From patent publication US6949250B2, “Selective algaecides for control of cyanochloronta” (The United States of America as represented by the …, priority 2002, dated 2005)
